Assay results as given in patent US6620779B2, “Method of enhancing the efficacy of anti-tumor agents” (Health Research Inc., priority 1999, dated 2003).
“Also recorded” adds a separate entry of the source.

Tests used:
[1] = system: human ovarian cancer xenografts (papillary serous adenocarcinoma of the ovary); experiment: Large gonadal fat pad (GFP) human ovarian cancer xenograft in SCID mice, single cisplatin dose, tumor growth; format: in vivo, CB 17-SCID/SCID mice; conditions: large GFP tumors; cisplatin 5 mg/kg ip day 0; EPO 20 units sc three times per week day −15 to +6; necropsy day 7
Protocol: To illustrate this embodiment, experiments were carried out in immunodeficient SCID mice bearing human ovarian cancer.
Eighty CB 17-SCID/SCID mice (Taconic Labs) were used. The animals were kept under sterile and light-controlled conditions. Portions of tumors from patients with recurrent stage IIIC, grade 3, papillary serous adenocarcinoma of the ovary were implanted and propagated in SCID mice by procedures well known to those skilled in the art. Briefly, xenografts were grown and passaged at least five times prior to the implantation of tumors into experimental animals. […]
Automated hematocrits were obtained from tail bleeds performed on three mice selected randomly from each group on days −15, −7, 0, and +7. […] Tumors were excised and measured in three dimensions with vernier calipers. Tumor volume was calculated as follows. […]
The percent growth of the tumor was calculated using the formula: […]
(§1) Percent tumor growth was calculated for each index day compared to day 0 and plotted over time. […] The growth curves developed in the smaller subcutaneous tumor group and the curves representing change in the hematocrit over time were analyzed by analysis of variance. […]

[2] = system: human ovarian cancer xenografts; experiment: Small subcutaneous human ovarian cancer xenograft in SCID mice, cisplatin on day 0 and 7, tumor growth curves; format: in vivo, CB 17-SCID/SCID mice; conditions: subcutaneous tumor nodules; cisplatin 5 mg/kg ip day 0 and 7; EPO 20 units sc three times per week day −15 to +13; to day +15; FIG. 1
Protocol: In another illustration of this embodiment, cisplatin was administered twice during the treatment. In additional forty experimental mice at six weeks of age, 2 mm portions of human ovarian cancer xenografts were implanted. Treatment groups were randomly assigned three days after implantation. Group I animals (controls) received 100 μl of PBS three times per week subcutaneously from day −15 to day +13 and 300 μl PBS ip on day 0 and 7. Mice in Group II (EPO group) received EPO subcutaneously at a dose of 20 units in 100 μl of PBS three times per week from day −15 to day +13 and 300 μl of PBS ip on day 0 and 7. Mice in Group III (cisplatin group) received cisplatin ip at a dose of 5 mg/kg in 300 μl of PBS on day 0 and 7, and 100 μl of subcutaneous PBS three times per week from day −15 to day +13. […]
Automated hematocrits were obtained as described above on days −15, −7, 0, +7, and +14. […] Tumor volumes were calculated on days 0, +1, +3, +5, +7, +9, +11, +13 and +15 using the formula. […]
as §1

[3] = Automated hematocrits from tail bleeds of tumor-bearing SCID mice; format: in vivo, CB 17-SCID/SCID mice; parameters: Hematocrits: unit not given here; conditions: for Hematocrits: mice bearing small subcutaneous tumors
Protocol: Automated hematocrits were obtained from tail bleeds performed on three mice selected randomly from each group on days −15, −7, 0, and +7. No mouse was bled twice. On day 7, mice were sacrificed and necropsies were performed. Tumors were excised and measured in three dimensions with vernier calipers. Tumor volume was calculated as follows.
In another illustration of this embodiment, cisplatin was administered twice during the treatment. In additional forty experimental mice at six weeks of age, 2 mm portions of human ovarian cancer xenografts were implanted. Treatment groups were randomly assigned three days after implantation. Group I animals (controls) received 100 μl of PBS three times per week subcutaneously from day −15 to day +13 and 300 μl PBS ip on day 0 and 7. Mice in Group II (EPO group) received EPO subcutaneously at a dose of 20 units in 100 μl of PBS three times per week from day −15 to day +13 and 300 μl of PBS ip on day 0 and 7. Mice in Group III (cisplatin group) received cisplatin ip at a dose of 5 mg/kg in 300 μl of PBS on day 0 and 7, and 100 μl of subcutaneous PBS three times per week from day −15 to day +13. Mice in Group IV (EPO+cisplatin group) received subcutaneous EPO injections as in group 2 three times per week from day −15 to day +13 and ip cisplatin injections as in group 3 on day 0 and 7. Mice were observed until day +15.
Automated hematocrits were obtained as described above on days −15, −7, 0, +7, and +14. The change in hematocrit relative to the initial hematocrit was plotted over time. Serial measurements of tumor nodules were made in two dimensions using vernier calipers starting on day zero. On day zero, tumors had grown to approximately 4 mm×5 mm in size in each group. Tumor volumes were calculated on days 0, +1, +3, +5, +7, +9, +11, +13 and +15 using the formula.
Percent tumor growth was calculated for each index day compared to day 0 and plotted over time. Statistical analysis included Student T tests for the overall tumor growth in the large GFP tumor experiment. The growth curves developed in the smaller subcutaneous tumor group and the curves representing change in the hematocrit over time were analyzed by analysis of variance. Significance was defined by P values less than 0.05.

[4] = Performance status (morbidity/mortality criteria) of treated tumor-bearing mice; format: in vivo, CB 17-SCID/SCID mice; parameters: key to Performance status score, individual mice: A grade of 0 equaled normal health; a grade of 5+ equaled death; conditions: for Performance status score, individual mice: mouse no. 1-10, Table 2 (counts match day +14)
Protocol: To illustrate this embodiment, performance status of mice from Example 1 receiving the various treatments was evaluated. Performance status was assessed on days 0, +7, and +14 using five objective criteria associated with morbidity and mortality in experimental mice. The five criteria were (1) ruffled fur; (2) weakness/lethargy; (3) 20% weight loss compared to the mean weight of control animals; (4) kyphotic hunched posturing; and (5) death. A grade of 0 equaled normal health and a grade of 5+ equaled death.

[5] = in vivo; cited from earlier work

Compound | Tumor growth (percent tumor growth, tumor size at necropsy) [1] | Tumor growth curves (percent tumor growth vs day 0) [2] | Hematocrits ([3]; Week 0) | Hematocrits ([3]; Week +1) | Hematocrits ([3]; Week +2) | Hematocrits ([3]; Week −1) | Hematocrits ([3]; Week −2 (initial value)) | Increase in the hematocrit compared to its initial value ([3]; vs week −2, p<0.01 vs controls, FIG. 2) | Performance status scores ([4]; day +7, all mice of the group) | Performance status score, individual mice [4] | Performance status score, Total ([4]; sum over 10 mice, Table 2) | Half life in the plasma [5] | Decrease in the hematocrit ([3]; over time vs initial value, FIG. 2) [%] | Mice with 20% weight loss compared to controls ([4]; day +7, 10 mice per group) | Mice with ruffled fur ([4]; day +7, 10 mice per group) | Mice with signs of weakness/lethargy ([4]; day +7, 10 mice per group) | Mice with hunched posturing ([4]; day +14, 10 mice per group) | Mortalities ([4]; day +14, 10 mice per group)
EPO: erythropoietin, hormone regulating red blood cell production; used as hematocrit elevator | No difference was observed between the controls and the EPO group | no difference was observed between the controls and the EPO group | 48.9 ± 0.3 | 49.3 ± 0.3 | 53.6 ± 0.4 | 44.9 ± 0.2 | 39.5 ± 0.2 | 25-35% | zero | 0 | 0 | about 5 hours |  |  |  |  |  | 
N.N.[Cl][Pt][Cl] [CISPLATIN, cis-diamine dichloro platinum] | significant difference in the tumor growth was observed in the groups treated with and without cisplatin |  | 39.8 ± 0.3 | 40.7 ± 0.1 | 33.1 ± 0.3 | 39.8 ± 0.2 | 39.8 ± 0.2 |  |  | + + +; also recorded: + + + +; also recorded: + + + + + |  |  | 20 | 6 | all | all | 3 | 4
